Measurements reported in patent US9808003B2, “Herbicidally active 2-(substituted-phenyl)-cyclopentane-1,3-dione compounds and derivatives thereof” (Syngenta Limited, priority 2013, dated 2017).

Legend:
Type in all cases: in vivo
[1] = tested on: Winter Wheat “Hereward”; assay: Test 1B glasshouse assay, post-emergence herbicidal activity against cereal crops; settings: 14 DAA
How it was run: (§1)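 Technical compound in IF50 with acetone, diluted into 0.5% v/v Adigor, sprayed post-emergence on 14-day glasshouse plants (22/16 °C, 16 h light, 65% humidity), typically at 60, 90 or 120 g/ha, with or without 50 g/ha cloquintocet-mexyl safener. Phytotoxicity scored visually 14 DAA (0–100%), mean of two replicates.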

[2] = tested on: Winter Barley “Suzuka”; assay: as above; settings: 14 DAA
How it was run: as §1

[3] = tested on: Spring Wheat “Teal”; assay: as above; settings: 14 DAA
How it was run: as §1

[4] = tested on: Spring Barley “Harrington”; assay: as above; settings: 14 DAA
How it was run: as §1

[5] = tested on: grassy monocotyledonous weeds; assay: Test 1B glasshouse assay, post-emergence, comparison of separated enantiomers, weeds overall; settings: chiral-column-separated enantiomers, A98 vs A99 and A100 vs A101, Biological Example 1B
Protocol: Biological Example 1B tests the herbicidal activity of“technical” compounds (i.e. compounds not previously formulated before the test), as the herbicides under test.
An “instant formulation”, known as the “IF50”, containing 50 g/liter (i.e. 5% w/v) of the “technical” (i.e. unformulated) active ingredient (i.e. the herbicide under test), is prepared by dissolving the active ingredient in a mixture of organic solvents and emulsifier, details of which are provided in the Table below. […]
The test plants are then grown on under controlled conditions in the glasshouse (at 22/16° C., day/night; 16 hours light; 65% humidity) and are watered twice daily. 14 days after application of the test herbicide, the test is evaluated visually for percentage phytotoxicity to the plant (where 100%=total damage to plant; 0%=no damage to plant). […]
Herbicidal activity (phytotoxicity) is evaluated visually, and an assessed percentage phytotoxicity score is given for each herbicidal application on each plant species (with 100%=total damage to plant; 0%=no damage to plant; the assessment is recorded in increments of 1%). […]

[6] = tested on: Lolium multiflorum (LOLMU); assay: Test 1B glasshouse assay, post-emergence herbicidal activity against grassy weeds; settings: 14 DAA
How it was run: (§2)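 Percent phytotoxicity (0–100%, 1% steps) was scored visually 14 days after spraying, as the mean of duplicates. Plants grown 14 days under glasshouse control received the herbicide post-emergence, typically 60–120 g/ha with or without 50 g/ha cloquintocet-mexyl safener, in spray containing 0.5% v/v Adigor.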

[7] = tested on: Alopecurus myosuroides (ALOMY); assay: as above; settings: 14 DAA
How it was run: as §2

[8] = tested on: Setaria viridis (SETVI); assay: as above; settings: 14 DAA
How it was run: as §2

[9] = tested on: Poa annua (POAAN); assay: as above; settings: 14 DAA
How it was run: as §2

[10] = tested on: Avena fatua (AVEFA); assay: as above; settings: 14 DAA
How it was run: as §2

[11] = 30 g/ha herbicide, 50 g/ha cloquintocet-mexyl
[12] = 45 g/ha herbicide, 50 g/ha cloquintocet-mexyl
[13] = 60 g/ha herbicide, 0 g/ha cloquintocet-mexyl
[14] = 60 g/ha herbicide, 50 g/ha cloquintocet-mexyl

CCc1cc(-n2cc(Cl)cn2)cc(C)c1C1C(=O)C[C@@H](CCNC(=O)c2ccccn2)C1=O (stereo partly shown) [Compound A100]
Post-emergence herbicidal activity against cereal crops, percentage phytotoxicity, Winter Wheat “Hereward” [1, 11]: 15%
Post-emergence herbicidal activity against cereal crops, percentage phytotoxicity, Winter Wheat “Hereward” [1, 12]: 30%
Post-emergence herbicidal activity against cereal crops, percentage phytotoxicity, Winter Wheat “Hereward” [1, 13]: 60%
Post-emergence herbicidal activity against cereal crops, percentage phytotoxicity, Winter Wheat “Hereward” [1, 14]: 40%
Post-emergence herbicidal activity against cereal crops, percentage phytotoxicity, Winter Barley “Suzuka” [2, 11]: 10%
Post-emergence herbicidal activity against cereal crops, percentage phytotoxicity, Winter Barley “Suzuka” [2, 12]: 30%
Post-emergence herbicidal activity against cereal crops, percentage phytotoxicity, Winter Barley “Suzuka” [2, 13]: 93%
Post-emergence herbicidal activity against cereal crops, percentage phytotoxicity, Winter Barley “Suzuka” [2, 14]: 53%
Post-emergence herbicidal activity against cereal crops, percentage phytotoxicity, Spring Wheat “Teal” [3, 11]: 20%
Post-emergence herbicidal activity against cereal crops, percentage phytotoxicity, Spring Wheat “Teal” [3, 12]: 30%
Post-emergence herbicidal activity against cereal crops, percentage phytotoxicity, Spring Wheat “Teal” [3, 13]: 65%
Post-emergence herbicidal activity against cereal crops, percentage phytotoxicity, Spring Wheat “Teal” [3, 14]: 45%
Post-emergence herbicidal activity against cereal crops, percentage phytotoxicity, Spring Barley “Harrington” [4, 11]: 13%
Post-emergence herbicidal activity against cereal crops, percentage phytotoxicity, Spring Barley “Harrington” [4, 12]: 18%
Post-emergence herbicidal activity against cereal crops, percentage phytotoxicity, Spring Barley “Harrington” [4, 13]: 83%
Post-emergence herbicidal activity against cereal crops, percentage phytotoxicity, Spring Barley “Harrington” [4, 14]: 28%
herbicidal activity against grassy monocotyledonous weeds compared with the compound of opposite stereochemistry [5]: more potent herbicidal activity
Post-emergence herbicidal activity, percentage phytotoxicity, LOLMU [6, 11]: 100%
Post-emergence herbicidal activity, percentage phytotoxicity, LOLMU [6, 12]: 100%
Post-emergence herbicidal activity, percentage phytotoxicity, LOLMU [6, 13]: 100%
Post-emergence herbicidal activity, percentage phytotoxicity, LOLMU [6, 14]: 100%
Post-emergence herbicidal activity, percentage phytotoxicity, ALOMY [7, 11]: 55%
Post-emergence herbicidal activity, percentage phytotoxicity, ALOMY [7, 12]: 75%
Post-emergence herbicidal activity, percentage phytotoxicity, ALOMY [7, 13]: 83%
Post-emergence herbicidal activity, percentage phytotoxicity, ALOMY [7, 14]: 78%
Post-emergence herbicidal activity, percentage phytotoxicity, SETVI [8, 11]: 95%
Post-emergence herbicidal activity, percentage phytotoxicity, SETVI [8, 12]: 99%
Post-emergence herbicidal activity, percentage phytotoxicity, SETVI [8, 13]: 99%
Post-emergence herbicidal activity, percentage phytotoxicity, SETVI [8, 14]: 99%
Post-emergence herbicidal activity, percentage phytotoxicity, POAAN [9, 11]: 73%
Post-emergence herbicidal activity, percentage phytotoxicity, POAAN [9, 12]: 78%
Post-emergence herbicidal activity, percentage phytotoxicity, POAAN [9, 13]: 80%
Post-emergence herbicidal activity, percentage phytotoxicity, POAAN [9, 14]: 78%
Post-emergence herbicidal activity, percentage phytotoxicity, AVEFA [10, 11]: 100%
Post-emergence herbicidal activity, percentage phytotoxicity, AVEFA [10, 12]: 100%
Post-emergence herbicidal activity, percentage phytotoxicity, AVEFA [10, 13]: 100%
Post-emergence herbicidal activity, percentage phytotoxicity, AVEFA [10, 14]: 100%
